{"source": "paper PMC5218480", "about": "(PLoS ONE, 2017)", "tested_on": "MV-4-11 cells", "experiment": "Gene expression microarray analysis (Affymetrix PrimeView) and GSEA", "format": "cell-based, human", "design": "RFU PODN (11730768_x_at) / Fold change /veh PODN (11730768_x_at) / RFU LINC00158 (11744669_a_at) / Fold change /veh LINC00158 (11744669_a_at) / RFU DUSP10 (11751237_a_at) / Fold change /veh DUSP10 (11751237_a_at) / RFU ID3 (11757404_x_at) / Fold change /veh ID3 (11757404_x_at) / RFU PLEKHG5 (11737974_s_at) / Fold change /veh PLEKHG5 (11737974_s_at) / RFU LRRC4B (11730491_at) / Fold change /veh LRRC4B (11730491_at) / RFU GIMAP4 (11747438_a_at) / Fold change /veh GIMAP4 (11747438_a_at) / RFU KRT8 (11758183_x_at) / Fold change /veh KRT8 (11758183_x_at) / RFU CNN1 (11734310_a_at) / Fold change /veh CNN1 (11734310_a_at) / RFU VPS37D (11726825_at) / Fold change /veh VPS37D (11726825_at) / RFU C10orf10 (11716522_x_at) / Fold change /veh C10orf10 (11716522_x_at) / RFU KIR2DL2 /// KIR2DL4 /// KIR2DL5A /// KIR2DL5B /// KIR2DS1 /// KIR2DS2 /// KIR2DS3 /// KIR2DS4 /// KIR3DL3 /// KIR3DL3 /// KIR3DS1 (11738374_at) / Fold change /veh KIR2DL2 /// KIR2DL4 /// KIR2DL5A /// KIR2DL5B /// KIR2DS1 /// KIR2DS2 /// KIR2DS3 /// KIR2DS4 /// KIR3DL3 /// KIR3DL3 /// KIR3DS1 (11738374_at) / RFU C1QL1 (11718748_at) / Fold change /veh C1QL1 (11718748_at) / RFU TMPRSS4 (11747572_a_at) / Fold change /veh TMPRSS4 (11747572_a_at) / RFU HAMP (11756126_x_at) / Fold change /veh HAMP (11756126_x_at) / RFU RNFT2 (11725882_a_at) / Fold change /veh RNFT2 (11725882_a_at) / RFU NR4A2 (11747474_a_at) / Fold change /veh NR4A2 (11747474_a_at) / RFU ABCC12 (11746883_a_at) / Fold change /veh ABCC12 (11746883_a_at) / RFU TMEM136 (11760407_x_at) / Fold change /veh TMEM136 (11760407_x_at) / RFU CLDN22 /// WWC2 (11732394_at) / Fold change /veh CLDN22 /// WWC2 (11732394_at) / RFU HLA-DPB1 (11760878_x_at) / Fold change /veh HLA-DPB1 (11760878_x_at) / RFU SPINT1 (11716480_a_at) / Fold change /veh SPINT1 (11716480_a_at) / RFU GAP43 (11754022_s_at) / Fold change /veh GAP43 (11754022_s_at) / RFU A4GNT (11735810_at) / Fold change /veh A4GNT (11735810_at) / RFU PRB3 (11715151_x_at) / Fold change /veh PRB3 (11715151_x_at) / RFU TUBB4B (11761932_at) / Fold change /veh TUBB4B (11761932_at) / RFU CAPN14 (11732068_a_at) / Fold change /veh CAPN14 (11732068_a_at) / RFU TMCC2 (11721928_a_at) / Fold change /veh TMCC2 (11721928_a_at) / RFU IRGQ (11745062_a_at) / Fold change /veh IRGQ (11745062_a_at) / RFU FAM174B (11720279_a_at) / Fold change /veh FAM174B (11720279_a_at) / RFU TMPRSS4 (11748680_a_at) / Fold change /veh TMPRSS4 (11748680_a_at) / RFU FAM212B (11763350_a_at) / Fold change /veh FAM212B (11763350_a_at) / RFU PLEKHG5 (11743358_a_at) / Fold change /veh PLEKHG5 (11743358_a_at) / RFU ZSCAN30 (11745921_a_at) / Fold change /veh ZSCAN30 (11745921_a_at) / RFU CMKLR1 (11741424_a_at) / Fold change /veh CMKLR1 (11741424_a_at) / RFU LOC101060620 /// MAPK8IP1 (11723275_at) / Fold change /veh LOC101060620 /// MAPK8IP1 (11723275_at) / RFU SPTSSB (11747773_x_at) / Fold change /veh SPTSSB (11747773_x_at) / RFU PRSS12 (11739890_at) / Fold change /veh PRSS12 (11739890_at) / RFU BIN1 (11741810_x_at) / Fold change /veh BIN1 (11741810_x_at) / RFU WNT11 (11732464_a_at) / Fold change /veh WNT11 (11732464_a_at) / RFU C10orf10 (11716521_a_at) / Fold change /veh C10orf10 (11716521_a_at) / RFU C5orf56 (11738089_at) / Fold change /veh C5orf56 (11738089_at) / RFU CYB561 (11721691_x_at) / Fold change /veh CYB561 (11721691_x_at) / RFU ANKRD19P (11752326_a_at) / Fold change /veh ANKRD19P (11752326_a_at) / RFU OR2T12 /// OR2T33 /// OR2T8 (11738714_s_at) / Fold change /veh OR2T12 /// OR2T33 /// OR2T8 (11738714_s_at) / RFU VCAN (11748164_a_at) / Fold change /veh VCAN (11748164_a_at) / RFU JSRP1 (11732532_at) / Fold change /veh JSRP1 (11732532_at) / RFU KRTAP10-11 (11738290_x_at) / Fold change /veh KRTAP10-11 (11738290_x_at) / RFU MYO3A (11730013_a_at) / Fold change /veh MYO3A (11730013_a_at) / RFU EBF3 (11725865_a_at) / Fold change /veh EBF3 (11725865_a_at) / RFU CAMK2N1 (11719241_x_at) / Fold change /veh CAMK2N1 (11719241_x_at) / RFU C5orf56 (11738088_a_at) / Fold change /veh C5orf56 (11738088_a_at) / RFU OLFML3 (11715873_a_at) / Fold change /veh OLFML3 (11715873_a_at) / RFU LOC100653217 /// NTM (11731650_a_at) / Fold change /veh LOC100653217 /// NTM (11731650_a_at) / RFU MAPK11 (11762145_a_at) / Fold change /veh MAPK11 (11762145_a_at) / RFU FIZ1 (11724087_x_at) / Fold change /veh FIZ1 (11724087_x_at) / RFU OASL (11726364_x_at) / Fold change /veh OASL (11726364_x_at) / RFU SOX15 (11748057_x_at) / Fold change /veh SOX15 (11748057_x_at) / RFU CD79A (11719716_a_at) / Fold change /veh CD79A (11719716_a_at) / RFU HIST1H1D (11736915_at) / Fold change /veh HIST1H1D (11736915_at) / RFU CASKIN2 (11723855_a_at) / Fold change /veh CASKIN2 (11723855_a_at) / RFU LOC730098 (11760151_x_at) / Fold change /veh LOC730098 (11760151_x_at) / RFU OR4N2 (11742367_at) / Fold change /veh OR4N2 (11742367_at) / RFU PRRT2 (11749266_a_at) / Fold change /veh PRRT2 (11749266_a_at) / RFU SNX32 (11753110_a_at) / Fold change /veh SNX32 (11753110_a_at) / RFU CDHR5 (11726645_a_at) / Fold change /veh CDHR5 (11726645_a_at) / RFU RCAN1 (11760418_a_at) / Fold change /veh RCAN1 (11760418_a_at) / RFU FAM167A (11723789_a_at) / Fold change /veh FAM167A (11723789_a_at) / RFU FAM26E (11764081_at) / Fold change /veh FAM26E (11764081_at) / RFU ISYNA1 (11749810_s_at) / Fold change /veh ISYNA1 (11749810_s_at) / RFU ACY1 (11761880_at) / Fold change /veh ACY1 (11761880_at) / RFU 11764098_at / Fold change /veh 11764098_at / RFU SAMD14 (11745864_x_at) / Fold change /veh SAMD14 (11745864_x_at) / RFU NPB (11741838_a_at) / Fold change /veh NPB (11741838_a_at) / RFU TMPRSS6 (11731388_a_at) / Fold change /veh TMPRSS6 (11731388_a_at) / RFU KRTAP10-2 (11738614_at) / Fold change /veh KRTAP10-2 (11738614_at) / RFU ARHGAP8 /// PRR5-ARHGAP8 (11727945_x_at) / Fold change /veh ARHGAP8 /// PRR5-ARHGAP8 (11727945_x_at) / RFU KRTAP5-7 /// NADSYN1 (11734609_at) / Fold change /veh KRTAP5-7 /// NADSYN1 (11734609_at) / RFU RASL12 (11751679_a_at) / Fold change /veh RASL12 (11751679_a_at) / RFU CDKN2B (11736163_a_at) / Fold change /veh CDKN2B (11736163_a_at) / RFU PRF1 (11729649_at) / Fold change /veh PRF1 (11729649_at) / RFU, ZNF638 /// ZNF638-IT1 / Fold change vs veh, ZNF638 /// ZNF638-IT1 / RFU, PANK3 / Fold change vs veh, PANK3 / RFU, SH3YL1 / Fold change vs veh, SH3YL1 / RFU, ZEB2 / Fold change vs veh, ZEB2 / RFU, NRIP1 / Fold change vs veh, NRIP1 / RFU, PTTG1IP / Fold change vs veh, PTTG1IP / RFU, CAPN2 / Fold change vs veh, CAPN2 / RFU, MED14 / Fold change vs veh, MED14 / RFU, SNORA58 / Fold change vs veh, SNORA58 / RFU, C1orf63 / Fold change vs veh, C1orf63 / RFU, LRRFIP1 / Fold change vs veh, LRRFIP1 / RFU, NDUFAF7 / Fold change vs veh, NDUFAF7 / RFU, SLC12A2 / Fold change vs veh, SLC12A2 / RFU, IBTK / Fold change vs veh, IBTK / RFU, ESF1 / Fold change vs veh, ESF1 / Fold change vs veh, TMEM50B / RFU, TAOK1 / Fold change vs veh, TAOK1 / RFU, ACBD3 / Fold change vs veh, ACBD3 / RFU, TMA16 / Fold change vs veh, TMA16 / RFU, RWDD3 / Fold change vs veh, RWDD3 / RFU, BCAT1 / Fold change vs veh, BCAT1 / RFU, EDEM3 / Fold change vs veh, EDEM3 / RFU, TMEM33 / Fold change vs veh, TMEM33 / RFU, WDR75 / Fold change vs veh, WDR75 / RFU, AHCTF1 / Fold change vs veh, AHCTF1 / RFU, TFRC / Fold change vs veh, TFRC / RFU, ZDHHC17 / Fold change vs veh, ZDHHC17 / RFU, NOM1 / Fold change vs veh, NOM1 / RFU, ARL8B / Fold change vs veh, ARL8B / RFU, ZBTB11 / Fold change vs veh, ZBTB11 / RFU, TAMM41 / Fold change vs veh, TAMM41 / RFU, KIAA1704 /// LOC100996395 / Fold change vs veh, KIAA1704 /// LOC100996395 / RFU, ING1 / Fold change vs veh, ING1 / RFU, TRMT61B / Fold change vs veh, TRMT61B / RFU, FUBP3 / Fold change vs veh, FUBP3 / RFU, TP53 / Fold change vs veh, TP53 / RFU, TNKS2 / Fold change vs veh, TNKS2 / RFU, ZFP14 / Fold change vs veh, ZFP14 / RFU, ACTR2 / Fold change vs veh, ACTR2 / RFU, PPP3R1 / Fold change vs veh, PPP3R1 / RFU, PIK3R1 / Fold change vs veh, PIK3R1 / RFU, HNRNPA1 / Fold change vs veh, HNRNPA1 / RFU, RNF170 / Fold change vs veh, RNF170 / RFU, ZNF28 / Fold change vs veh, ZNF28 / RFU, RNGTT / Fold change vs veh, RNGTT / RFU, OGT / Fold change vs veh, OGT / RFU, BRD1 / Fold change vs veh, BRD1 / RFU, MARS / Fold change vs veh, MARS / RFU, ZNF655 / Fold change vs veh, ZNF655 / RFU, FAHD1 / Fold change vs veh, FAHD1 / RFU, BDP1 / Fold change vs veh, BDP1 / RFU, LRRCC1 / Fold change vs veh, LRRCC1 / RFU, ARID1A / Fold change vs veh, ARID1A / RFU, ZNF146 / Fold change vs veh, ZNF146 / RFU, ZNF330 / Fold change vs veh, ZNF330 / RFU, GPN3 / Fold change vs veh, GPN3 / RFU, C9orf123 / Fold change vs veh, C9orf123 / RFU, N4BP2L2 / Fold change vs veh, N4BP2L2 / RFU, ARFIP1 / Fold change vs veh, ARFIP1 / RFU, FAM179B / Fold change vs veh, FAM179B / RFU, BCL10 / Fold change vs veh, BCL10 / RFU, UHRF1BP1L / Fold change vs veh, UHRF1BP1L / RFU, BET1 / Fold change vs veh, BET1 / RFU, CNOT2 / Fold change vs veh, CNOT2 / RFU, ZNF268 / Fold change vs veh, ZNF268 / Fold change vs veh, ZNF507 / RFU, DGCR2 / Fold change vs veh, DGCR2 / RFU, WDSUB1 / Fold change vs veh, WDSUB1 / Fold change vs veh, HSP90B1 /// MIR3652 / RFU, ADSS / Fold change vs veh, ADSS / RFU, GK / Fold change vs veh, GK / RFU, ZNF148 / Fold change vs veh, ZNF148 / RFU, TAF9 / Fold change vs veh, TAF9 / RFU, SLC1A5 / Fold change vs veh, SLC1A5 / RFU, SLMO2 / Fold change vs veh, SLMO2 / RFU, ABCC4 / Fold change vs veh, ABCC4 / RFU, LOC101060439 /// RAP1B / Fold change vs veh, LOC101060439 /// RAP1B / RFU, RFX7 / Fold change vs veh, RFX7 / RFU, GTPBP10 / Fold change vs veh, GTPBP10 / RFU, CNEP1R1 / Fold change vs veh, CNEP1R1 / RFU, BIVM-ERCC5 /// ERCC5 / Fold change vs veh, BIVM-ERCC5 /// ERCC5 / RFU, ILF3 / Fold change vs veh, ILF3 / RFU 11762660_at / Fold change /veh 11762660_at / RFU VCAN (11757783_s_at) / Fold change /veh VCAN (11757783_s_at) / RFU DDX43 (11728927_at) / Fold change /veh DDX43 (11728927_at) / RFU KRT8 (11758188_x_at) / Fold change /veh KRT8 (11758188_x_at) / RFU NKD1 (11759106_at) / Fold change /veh NKD1 (11759106_at) / RFU SRD5A1 (11742802_a_at) / Fold change /veh SRD5A1 (11742802_a_at) / RFU TPSAB1 /// TPSB2 (11721975_s_at) / Fold change /veh TPSAB1 /// TPSB2 (11721975_s_at) / RFU GSTM3 (11746129_a_at) / Fold change /veh GSTM3 (11746129_a_at) / RFU IL23R (11737362_x_at) / Fold change /veh IL23R (11737362_x_at) / RFU TMEM51 (11727254_a_at) / Fold change /veh TMEM51 (11727254_a_at) / RFU PIWIL2 (11732686_x_at) / Fold change /veh PIWIL2 (11732686_x_at) / RFU ORM1 (11744905_x_at) / Fold change /veh ORM1 (11744905_x_at) / RFU CCDC152 (11743942_at) / Fold change /veh CCDC152 (11743942_at) / RFU ECM1 (11717891_a_at) / Fold change /veh ECM1 (11717891_a_at) / RFU IL23R (11748794_a_at) / Fold change /veh IL23R (11748794_a_at) / RFU TNFAIP8L3 (11732012_x_at) / Fold change /veh TNFAIP8L3 (11732012_x_at) / RFU MBOAT4 (11741988_at) / Fold change /veh MBOAT4 (11741988_at) / RFU 11764193_at / Fold change /veh 11764193_at / RFU TMEM53 (11763286_at) / Fold change /veh TMEM53 (11763286_at) / RFU MAGEB2 (11727129_at) / Fold change /veh MAGEB2 (11727129_at) / RFU TMEM200A (11744735_a_at) / Fold change /veh TMEM200A (11744735_a_at) / RFU CCDC152 (11751479_a_at) / Fold change /veh CCDC152 (11751479_a_at) / RFU FAM211A (11726209_a_at) / Fold change /veh FAM211A (11726209_a_at) / RFU RGS16 (11746705_a_at) / Fold change /veh RGS16 (11746705_a_at) / RFU VCAN (11755009_s_at) / Fold change /veh VCAN (11755009_s_at) / RFU RHOB (11743442_s_at) / Fold change /veh RHOB (11743442_s_at) / RFU RGS16 (11720943_a_at) / Fold change /veh RGS16 (11720943_a_at) / RFU RGS16 (11720944_at) / Fold change /veh RGS16 (11720944_at) / RFU, VPS4B / Fold change vs veh, VPS4B / RFU, CREB1 / Fold change vs veh, CREB1 / RFU, DNAJC13 / Fold change vs veh, DNAJC13 / RFU, GNAQ / Fold change vs veh, GNAQ / RFU, CDK5R1 / Fold change vs veh, CDK5R1 / RFU, ZRANB3 / Fold change vs veh, ZRANB3 / RFU, CUL4A / Fold change vs veh, CUL4A / RFU, CCNY / Fold change vs veh, CCNY / RFU, UFL1 / Fold change vs veh, UFL1 / RFU, COG3 / Fold change vs veh, COG3 / RFU, DIAPH2 / Fold change vs veh, DIAPH2 / RFU, SKA2 / Fold change vs veh, SKA2 / RFU, AFF3 / Fold change vs veh, AFF3 / RFU, LMF1 / Fold change vs veh, LMF1 / RFU, IPO11 / Fold change vs veh, IPO11 / RFU, DFFB / Fold change vs veh, DFFB / RFU, FOXP1 / Fold change vs veh, FOXP1 / RFU, CARD8 / Fold change vs veh, CARD8 / RFU, STRN3 / Fold change vs veh, STRN3 / RFU, ADK / Fold change vs veh, ADK / RFU, RASSF2 / Fold change vs veh, RASSF2 / RFU, WIPF1 / Fold change vs veh, WIPF1 / RFU, LARP1B / Fold change vs veh, LARP1B / RFU, RASA1 / Fold change vs veh, RASA1 / RFU, RB1 / Fold change vs veh, RB1 / RFU, PPFIA1 / Fold change vs veh, PPFIA1 / RFU, MAT2A / Fold change vs veh, MAT2A / RFU, CCT5 / Fold change vs veh, CCT5 / RFU, WDR92 / Fold change vs veh, WDR92 / RFU, CUX1 / Fold change vs veh, CUX1 / RFU, TTC7A / Fold change vs veh, TTC7A / RFU, TMEM135 / Fold change vs veh, TMEM135 / RFU, DEPTOR / Fold change vs veh, DEPTOR / RFU, CPM / Fold change vs veh, CPM / RFU, DNAJB6 / Fold change vs veh, DNAJB6 / RFU, CACNA2D3 / Fold change vs veh, CACNA2D3 / RFU, DTX4 / Fold change vs veh, DTX4 / RFU, TFCP2 / Fold change vs veh, TFCP2 / RFU, GMCL1 /// GMCL1P1 / Fold change vs veh, GMCL1 /// GMCL1P1 / RFU, AEBP2 / Fold change vs veh, AEBP2 / RFU, SNHG1 /// SNORD22 /// SNORD25 /// SNORD26 /// SNORD27 /// SNORD28 /// SNORD29 /// SNORD31 / Fold change vs veh, SNHG1 /// SNORD22 /// SNORD25 /// SNORD26 /// SNORD27 /// SNORD28 /// SNORD29 /// SNORD31 / Fold change (Aza/veh), C12orf56 (ProbeSet 11735607_a_at) / Fold change (ACY-1035/veh), C12orf56 (ProbeSet 11735607_a_at) / Fold change (Aza/veh), FGFR1OP (ProbeSet 11751329_s_at) / Fold change (ACY-1035/veh), FGFR1OP (ProbeSet 11751329_s_at) / Fold change (Aza/veh), VPS36 (ProbeSet 11739960_a_at) / Fold change (ACY-1035/veh), VPS36 (ProbeSet 11739960_a_at) / RFU SYPL1 (11715823_x_at) / Fold change /veh SYPL1 (11715823_x_at) / RFU IGFBP7 (11715501_s_at) / Fold change /veh IGFBP7 (11715501_s_at) / RFU REEP3 (11722064_at) / Fold change /veh REEP3 (11722064_at) / RFU IGLL1 (11728026_x_at) / Fold change /veh IGLL1 (11728026_x_at): dose or concentration left out as unconfirmed", "details": "MV-4-11 cells, 48 hours"}
{"smiles": "Nc1ncn([C@@H]2O[C@H](CO)[C@@H](O)[C@H]2O)c(=O)n1", "note": "[azacitidine]", "values": [{"measurement": "Fold change /veh HLA-DPB1 (11760878_x_at)", "result": 0.86}]}
